Data: the supplement of paper PMC11061612

Legend:
Assay in all cases: Bliss excess, mean over the matrix (fraction); higher = more synergy
[1] = system: BICR22 (Oral Cavity Carcinoma)
Method in brief: (§1)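 Cell lines in DMEM/F12 or RPMI with 10% FBS were plated in 1536-well plates, held 24 hours at 37°C, 5% CO2, then given two-drug dose matrices for 72 hours (DMSO typically 0.2%). Viability was read by CellTiter-Glo 2.0 luminescence and scaled as inhibition from 0 (vehicle wells) to 1 (blank wells). Combination Emax is the second-highest inhibition in the matrix; Bliss excess is observed combination effect minus expected EA + EB − EA·EB, EA and EB being single-agent effects.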

[2] = system: CAPAN-2 (Pancreatic Carcinoma)
Method in brief: as §1

[3] = system: CCK-81 (Colorectal Carcinoma)
Method in brief: as §1

[4] = system: COLO-320-HSR (Colorectal Carcinoma)
Method in brief: as §1

[5] = system: ECC10 (Gastric Carcinoma)
Method in brief: as §1

[6] = system: FU97 (Gastric Carcinoma)
Method in brief: as §1

[7] = system: HCC1954 (Breast Carcinoma)
Method in brief: as §1

[8] = system: IGR-37 (Melanoma)
Method in brief: as §1

[9] = system: KARPAS-422 (B-Cell Non-Hodgkin's Lymphoma)
Method in brief: as §1

[10] = system: LN-405 (Glioblastoma)
Method in brief: as §1

[11] = system: NCI-H1581 (Non-Small Cell Lung Carcinoma)
Method in brief: as §1

[12] = system: NCI-H2066 (Squamous Cell Lung Carcinoma)
Method in brief: as §1

[13] = system: NCI-H2591 (Mesothelioma)
Method in brief: as §1

[14] = system: NCI-H64 (Small Cell Lung Carcinoma)
Method in brief: as §1

[15] = system: NY (Osteosarcoma)
Method in brief: as §1

[16] = system: ONS-76 (Other Solid Carcinomas)
Method in brief: as §1

[17] = system: PANC-10-05 (Pancreatic Carcinoma)
Method in brief: as §1

[18] = system: TT (Thyroid Gland Carcinoma)
Method in brief: as §1

[19] = system: U-2-OS (Osteosarcoma)
Method in brief: as §1

[20] = system: VCaP (Prostate Carcinoma)
Method in brief: as §1

SMILES: CS(=O)(=O)CCNCc1ccc(-c2ccc3ncnc(Nc4ccc(OCc5cccc(F)c5)c(Cl)c4)c3c2)o1 [Lapatinib] + NC1(c2ccc(-c3nc4ccn5c(=O)[nH]nc5c4cc3-c3ccccc3)cc2)CCC1 [MK-2206] (first compound max 10 µM, 7x7, partner max 10 µM)
- Bliss excess [1]: 0.0346
- Bliss excess [2]: -0.0098
- Bliss excess [3]: 0.0908
- Bliss excess [4]: 0.0102
- Bliss excess [5]: 0.0211
- Bliss excess [6]: 0.0294
- Bliss excess [7]: 0.0952
- Bliss excess [8]: 0.0428
- Bliss excess [9]: -0.0122
- Bliss excess [10]: -0.0277
- Bliss excess [11]: -0.0046
- Bliss excess [12]: 0.0521
- Bliss excess [13]: -0.0408
- Bliss excess [14]: 0.022
- Bliss excess [15]: 0.0087
- Bliss excess [16]: 0.0048
- Bliss excess [17]: -0.0218
- Bliss excess [18]: -0.0043
- Bliss excess [19]: -0.029
- Bliss excess [20]: -0.0421
